# Where two headings read alike, the source gives them in different places. Marks after values point to notes of the source that are not given here.
# Key:
# [1] = tested on: panel of common bacterial pathogens; test: Activity against a panel of common bacterial pathogens; format: cell-based
# [2] = tested on: panel of mammalian cell lines; test: Activity against a panel of mammalian cell lines; format: cell-based
# [3] = Chronic lung infection model in mice; format: in vivo, C57BL/6 mice; conditions: C57BL/6, mouse, in vivo, 1.3 mg/kg, read-out: plasma steady-state AUC associated with EDmax (AUCEDmax), target exposure for efficacy in humans
# Procedure: (§1) The efficacy of GSK3036656 was assessed in C57BL/6 mice having acute and chronic lung infections by M. tuberculosis H37Rv, which mimic infections by actively replicating and nonreplicating/slow-replicating mycobacteria, respectively ([13], [14]). In the acute model, 10 mice were administered different daily oral doses ranging from 0.1 to 100 mg/kg of body weight for 8 days starting 1 day after infection. A maximum difference of 3.6 log CFU was obtained in the lungs compared to untreated mice. […] In the chronic model, a total of 18 mice were administered doses ranging from 0.1 to 30 mg/kg from weeks 6 to 14 after infection. Maximum reduction (drop of 2.1 log10 CFU in the lungs) was achieved after 2 months of daily oral treatment and after fitting the data to a sigmoidal curve. The EDmax for GSK3036656 was estimated as 1.3 mg/kg ([…], 0.7 to 3.4 mg/kg). […] Some additional groups treated at 0.3 to 30 mg/kg were studied in the chronic model to obtain kinetic data (from 2 to 16 weeks of treatment).
# M. tuberculosis H37Rv = test: Chronic lung infection model in mice; format: in vivo, C57BL/6 mice
# Procedure: as §1
# in vitro [4] = format: in vitro ADME; conditions: rat, plasma
# in vitro [5] = format: in vitro ADME, humans; conditions: human, plasma
# [6] = format: in vitro ADME; conditions: not told
# [7] = target: breast cancer resistance protein (Homo sapiens, UniProt Q9UNQ0); test: BCRP substrate assessment; format: in vitro ADME; conditions: in vitro
# cytochrome P450s = format: in vitro ADME
# OATP1B1 = target: T1, OATP1B1 (Homo sapiens, UniProt Q9Y6L6); test: Direct inhibition of OATP1B1; format: in vitro ADME; conditions: in vitro
# T1 sequence (Q9Y6L6 1-691): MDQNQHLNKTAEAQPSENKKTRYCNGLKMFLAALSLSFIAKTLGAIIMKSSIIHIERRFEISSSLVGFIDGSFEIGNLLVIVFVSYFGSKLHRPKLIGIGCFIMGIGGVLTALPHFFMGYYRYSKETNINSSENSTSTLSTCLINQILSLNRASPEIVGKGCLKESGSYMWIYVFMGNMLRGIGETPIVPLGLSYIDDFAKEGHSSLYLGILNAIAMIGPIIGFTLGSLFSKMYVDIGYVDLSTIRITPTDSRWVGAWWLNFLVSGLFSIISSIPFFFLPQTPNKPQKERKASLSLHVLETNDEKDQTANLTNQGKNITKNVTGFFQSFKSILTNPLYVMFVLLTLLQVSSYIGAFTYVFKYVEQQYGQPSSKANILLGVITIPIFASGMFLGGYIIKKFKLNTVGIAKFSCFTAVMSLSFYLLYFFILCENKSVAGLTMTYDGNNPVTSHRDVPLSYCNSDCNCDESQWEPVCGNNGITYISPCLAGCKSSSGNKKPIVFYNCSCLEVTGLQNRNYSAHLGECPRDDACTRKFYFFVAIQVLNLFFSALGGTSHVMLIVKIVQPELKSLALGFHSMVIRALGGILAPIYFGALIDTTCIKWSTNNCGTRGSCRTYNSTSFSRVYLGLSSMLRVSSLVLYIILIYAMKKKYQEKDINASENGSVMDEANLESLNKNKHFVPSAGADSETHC
# [8] = mouse, in vivo
# [9] = rat, in vivo
# [10] = dog, in vivo
# [11] = Stability in pooled and spiked urine; format: physicochemical, human; conditions: multiple freeze-thaw cycles and prolonged exposure to light
# [12] = tested on: M. tuberculosis bacterial strain H37Rv; set-up: method as in PMID 28953378; conditions: in vitro; cited from earlier work
# [13] = target: M. tuberculosis enzyme leucyl-tRNA synthetase (LeuRS); set-up: method as in PMID 28953378; conditions: LeuRS aminoacylation assay; cited from earlier work
# [14] = both, human, in vivo
# [15] = human, in vivo
# [16] = human, in vivo; remark: listed apart in the source
# [17] = human, in vivo; remark: listed apart in the source
# clinical = conditions: human, in vivo, po, 5 mg, Ref
# [18] = Food effect study (part A, high-fat meal); conditions: 5 mg; for half-life: human, plasma, po, t1/2, geometric LS mean
# [19] = FTIH part A: plasma pharmacokinetics after single dose; conditions: human, po
# [20] = FTIH part B: plasma pharmacokinetics and accumulation after repeat dose; conditions: human, po
# Sequence of breast cancer resistance protein (Q9UNQ0 whole entry): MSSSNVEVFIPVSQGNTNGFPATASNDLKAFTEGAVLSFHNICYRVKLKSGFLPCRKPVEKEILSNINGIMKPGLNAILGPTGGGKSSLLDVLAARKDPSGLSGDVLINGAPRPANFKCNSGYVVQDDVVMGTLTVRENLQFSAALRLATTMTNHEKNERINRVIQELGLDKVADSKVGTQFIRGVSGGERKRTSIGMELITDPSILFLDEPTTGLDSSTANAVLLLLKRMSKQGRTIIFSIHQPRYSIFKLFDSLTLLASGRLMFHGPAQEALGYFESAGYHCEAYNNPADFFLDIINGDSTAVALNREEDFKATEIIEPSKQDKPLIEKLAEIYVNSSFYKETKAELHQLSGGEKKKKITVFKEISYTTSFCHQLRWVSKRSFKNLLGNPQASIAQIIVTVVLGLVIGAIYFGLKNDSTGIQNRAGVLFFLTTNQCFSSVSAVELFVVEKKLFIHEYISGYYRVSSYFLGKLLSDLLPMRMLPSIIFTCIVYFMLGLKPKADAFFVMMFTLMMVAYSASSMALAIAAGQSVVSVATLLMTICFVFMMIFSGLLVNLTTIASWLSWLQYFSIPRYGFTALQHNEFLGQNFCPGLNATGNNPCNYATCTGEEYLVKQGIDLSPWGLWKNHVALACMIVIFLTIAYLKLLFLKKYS
compound,measurement,setting,value
"NC[C@H]1OB(O)c2c(OCCO)ccc(Cl)c21 [GSK3036656, (S)-3-(aminomethyl)-4-chloro-7-(2-hydroxyethoxy)benzo[c][1,2]oxaborol-1(3H)-ol]",activity against a panel of common bacterial pathogens,[1],inactivity
same,activity against a panel of mammalian cell lines,[2],inactivity
same,AUC,[3],1740 ng·h/mL
same,maximum reduction (drop of CFU in the lungs),M. tuberculosis H37Rv; 2 months of daily oral treatment,2.1 log10 CFU
same,EDmax,M. tuberculosis H37Rv; sigmoidal fit,1.3 mg/kg
same,fraction unbound,in vitro [4],0.688
same,fraction unbound,in vitro [5],0.838
same,passive permeability,[6],moderate
same,substrate specificity for breast cancer resistance protein,[7],lack of substrate specificity
same,direct inhibition of cytochrome P450s,cytochrome P450s,minimal evidence for direct inhibition
same,direct inhibition of OATP1B1,OATP1B1,minimal evidence for direct inhibition
same,oral bioavailability,[8],very high
same,oral bioavailability,[9],very high
same,oral bioavailability,[10],very high
same,stability in pooled and spiked urine,[11],degraded to GSK3635633
same,MIC,[12],0.0235 µg/mL
same,50% inhibitory concentration (IC50),[13],0.0588 µg/mL
same,"dose-proportionality slope, AUC0–t",[14],1.32
same,"dose-proportionality slope, Cmax and AUC0–∞",[14],0.96
same,Tmax difference (fed-fasted),[15],0.75^b h
same,Total % dose (drug-related material) in pooled urine,[16],50 % dose
same,"Absorption lag time, bootstrap median estimate",[17],0.24 h
same,"Absorption lag time, estimate (%SE)",[17],0.235 (3) h
same,"Ka, bootstrap median estimate",[17],0.95 h⁻¹
same,"Ka, estimate (%SE)",[17],0.925 (23) h^−1
same,"Residual variability (Prop), bootstrap median estimate",[17],12.6%
same,"Residual variability (Prop), estimate (%SE)",[17],12.9 (16) %
same,AUC(0-t),"clinical; AUC0–t, geometric LS mean",732 ng·h/mL
same,AUC(0-inf),"clinical; AUC0–∞, geometric LS mean",1430 ng·h/mL
same,Cmax,"clinical; Cmax, geometric LS mean",48.4 ng/mL
same,Tmax,clinical; Tmax,1.25 h
same,t1/2 ratio,[18]; fed vs fasted,0.89
same,half-life,"[18]; Ref, 5 mg fasted, n = 6",38.6 h
same,half-life,"[18]; Test, 5 mg fed, n = 5",34.4 h
same,half-life,"[19]; both, 5 mg",40.9 h
same,half-life,"[19]; both, 15 mg",28.4 h
same,half-life,[19]; 25 mg,49.9 h
same,half-life at 14 days,[20]; 5 mg,44 h
same,half-life at 14 days,[20]; 15 mg,37 h

# From publication PMC6658769, “First-Time-in-Human Study and Prediction of Early Bactericidal Activity for GSK3036656, a Potent Leucyl-tRNA Synthetase Inhibitor for Tuberculosis Treatment” (Antimicrobial Agents and Chemotherapy, 2019)
